The values below come from US9469615B2, “Quinoxalines and AZA-quinoxalines as CRTH2 receptor modulators” (Merck Sharp & Dohme Corp., priority 2010, dated 2016).

By Ki is commonly meant the dissociation constant of the complex between target and ligand, obtained from inhibition or displacement.

The target in the assay is T1, hCRTH2 (Homo sapiens, UniProt Q9Y5Y4).
T1 construct: expressed in transfected cells; host or cells: HEK (human embryonic kidney) cells expressing hCRTH2; membrane preparation
T1 sequence (Q9Y5Y4 1-395): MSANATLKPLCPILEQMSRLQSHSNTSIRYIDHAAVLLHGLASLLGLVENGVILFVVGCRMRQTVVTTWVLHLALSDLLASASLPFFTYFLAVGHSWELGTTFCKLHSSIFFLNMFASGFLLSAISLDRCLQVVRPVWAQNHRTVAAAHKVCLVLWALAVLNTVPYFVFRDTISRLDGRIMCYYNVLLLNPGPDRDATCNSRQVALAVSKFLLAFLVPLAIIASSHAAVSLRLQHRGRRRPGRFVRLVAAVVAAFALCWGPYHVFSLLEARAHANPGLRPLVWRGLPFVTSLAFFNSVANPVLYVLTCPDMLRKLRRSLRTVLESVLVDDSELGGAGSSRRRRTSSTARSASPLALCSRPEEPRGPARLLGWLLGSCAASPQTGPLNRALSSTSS
Nature of the assay: Radioligand binding assay ([3H]PGD2 competition, HEK-hCRTH2 membranes). Conditions: [3H]PGD2 competition, Table B. An outline of the steps:
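Membranes (8-20 μg protein) from HEK-hCRTH2 cells were incubated 60 min at room temperature with 3.0 nM [3H]PGD2 in 50 mM Tris-HCl pH 7.4, 1 mM EDTA, 2 mM MnCl2, 1% DMSO. Non-specific binding defined with 10 μM PGD2. Bound radioactivity counted after filtration.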

`O=C(N[C@@H](c1ccccc1)C(F)(F)F)c1ccc2nc(-c3ccc(Cl)cc3)c(CC3CCC(C(=O)O)C3)nc2c1` (stereo partly drawn) [compound 405, 3-((3-(4-chlorophenyl)-7-(((S)-2,2,2-trifluoro-1-phenylethyl)carbamoyl)quinoxalin-2-yl)methyl)cyclopentane-carboxylic acid] registered an inhibitory constant (Ki) of 2.1 to 20 nM. The result for `O=C(N[C@@H](c1ccc(Cl)cc1)C(F)(F)F)c1ccc2nc(-c3ccc(Cl)cc3)c(CC3CCC(C(=O)O)C3)nc2c1` (stereo partly drawn) [compound 406, 3-((3-(4-chlorophenyl)-7-(((S)-1-(4-chlorophenyl)-2,2,2-trifluoroethyl)carbamoyl)quinoxalin-2-yl)methyl)cyclopentane-carboxylic acid] reads 2.1 to 20 nM.

Consider `C[C@H](NC(=O)c1ccc2nc(-c3ccc(Cl)cc3)c(CC3CCC(C(=O)O)C3)nc2c1)c1ccc(F)cc1` (stereo partly drawn) [compound 407, 3-((3-(4-chlorophenyl)-7-(((S)-1-(4-fluorophenyl)ethyl)carbamoyl)quinoxalin-2-yl)methyl)cyclopentane-carboxylic acid], for which the Ki lay within 2.1 to 20 nM. The result for `CC(CCCc1nc2cc(C(=O)N[C@H](C)c3ccc(F)cc3)ccc2nc1-c1ccc(Cl)cc1)C(=O)O` (stereo partly drawn) [compound 408, 5-(3-(4-chlorophenyl)-7-(((R)-1-(4-fluorophenyl)ethyl)carbamoyl)quinoxalin-2-yl)-2-methylpentanoic acid] reads 0.1 to 2 nM; that for `CC(CCCc1nc2cc(C(=O)N[C@H](C)c3ccc(F)cc3)ccc2nc1-c1ccc(Cl)cc1)C(=O)O` (stereo partly drawn) [compound 409, 5-(3-(4-chlorophenyl)-7-(((R)-1-(4-fluorophenyl)ethyl)carbamoyl)quinoxalin-2-yl)-2-methylpentanoic acid], 20.1 to 200 nM; that for `C[C@@H](NC(=O)c1ccc2nc(-c3cccc(C#N)c3)c(CCCCC(=O)O)nc2c1)c1ccc(F)cc1` [compound 410, (R)-5-(3-(3-cyanophenyl)-7-((1-(4-fluorophenyl)ethyl)carbamoyl)quinoxalin-2-yl)pentanoic acid], 20.1 to 200 nM.

`C[C@@H](NC(=O)c1ccc2nc(-c3ccc(F)c(F)c3)c(CCCCC(=O)O)nc2c1)c1ccc(F)cc1` [compound 411] returned an inhibitory constant (Ki) of 20.1 to 200 nM. Then `C[C@@H](NC(=O)c1ccc2nc(-c3ccc(Cl)cc3)c(CCCCC(=O)O)nc2c1)c1cc(F)cc(F)c1` [compound 412, (R)-5-(3-(4-chlorophenyl)-7-((1-(3,5-difluorophenyl)ethyl)carbamoyl)quinoxalin-2-yl) pentanoic acid], with 0.1 to 2 nM; and `C[C@H](NC(=O)c1ccc2nc(-c3ccc(Cl)cc3)c(CCCCC(=O)O)nc2c1)c1cc(F)cc(F)c1` [compound 413, (S)-5-(3-(4-chlorophenyl)-7-((1-(3,5-difluorophenyl)ethyl)carbamoyl)quinoxalin-2-yl) pentanoic acid], with 0.1 to 2 nM. The result for `O=C(O)CCCCc1nc2cc(C(=O)N3CCC(c4ccc(F)cc4)CC3)ccc2nc1-c1ccc(Cl)cc1` [compound 414, 5-(3-(4-chlorophenyl)-7-(4-(4-fluorophenyl)piperidine-1-carbonyl)quinoxalin-2-yl)pentanoic acid] reads 0.1 to 2 nM; that for `O=C(O)CCCCc1nc2cc(C(=O)N3CCC(c4ccc(Cl)cc4)CC3)ccc2nc1-c1ccc(Cl)cc1` [compound 415, 5-(3-(4-chlorophenyl)-7-(4-(4-chlorophenyl)piperidine-1-carbonyl)quinoxalin-2-yl)pentanoic acid], 0.1 to 2 nM. Then `C[C@@H](NC(=O)c1ccc2nc(-c3ccc(Cl)cc3Cl)c(CCCCC(=O)O)nc2c1)c1ccc(F)cc1` [compound 416, (R)-5-(3-(2,4-dichlorophenyl)-7-((1-(4-fluorophenyl)ethyl)carbamoyl)quinoxalin-2-yl)pentanoic acid], with 2.1 to 20 nM; and `C[C@@H](NC(=O)c1ccc2nc(-c3ccc(C(F)(F)F)cc3Cl)c(CCCCC(=O)O)nc2c1)c1ccc(F)cc1` [compound 417, (R)-5-(3-(2-chloro-4-(trifluoromethyl)phenyl)-7-((1-(4-fluorophenyl)ethyl)carbamoyl)quinoxalin-2-yl) pentanoic acid], with 2.1 to 20 nM. In turn, `C[C@@H](NC(=O)c1ccc2nc(-c3ccc(Cl)cc3)c(CCC(=O)O)nc2c1)c1ccc(F)cc1` [compound 418, (R)-3-(3-(4-chlorophenyl)-7-((1-(4-fluorophenyl)ethyl)carbamoyl)quinoxalin-2-yl) propanoic acid] showed an inhibition constant Ki of 20.1 to 200 nM. The result for `O=C(O)CCCCc1nc2cc(C(=O)N3CC(c4cccc(F)c4)C3)ccc2nc1-c1ccc(Cl)cc1` [compound 419, 5-(3-(4-chlorophenyl)-7-(3-(3-fluorophenyl)azetidine-1-carbonyl)quinoxalin-2-yl)pentanoic acid] reads 0.1 to 2 nM. The result for `O=C(O)CCCCc1nc2cc(C(=O)N3CC(c4ccc(F)c(F)c4)C3)ccc2nc1-c1ccc(Cl)cc1` [compound 420, 5-(3-(4-chlorophenyl)-7-(3-(3,4-difluorophenyl)azetidine-1-carbonyl)quinoxalin-2-yl)pentanoic acid] reads 0.1 to 2 nM; that for `N#Cc1ccc(C2CN(C(=O)c3ccc4nc(-c5ccc(Cl)cc5)c(CCCCC(=O)O)nc4c3)C2)cc1` [compound 421, 5-(3-(4-chlorophenyl)-7-(3-(4-cyanophenyl)azetidine-l-carbonyl)quinoxalin-2-yl)pentanoic acid], 0.1 to 2 nM. The result for `C[C@@H](NC(=O)c1ccc2nc(-c3ccccc3)c(CC3CC(C(=O)O)C3)nc2c1)c1ccc(F)cc1` (stereo partly drawn) [compound 422, (R)-3-((7-((1-(4-fluorophenyl)ethyl)carbamoyl)-3-phenylquinoxalin-2-yl)methyl)cyclobutanecarboxyl acid] reads 2.1 to 20 nM. `CC(CCCc1nc2cc(C(=O)N3CCN(c4ccccc4)CC3)ccc2nc1-c1ccc(C(F)(F)F)cc1)C(=O)O` (centres unmarked) [compound 423, 2-methyl-5-(7-(4-phenylpperazine-1-carbonyl)-3-(4-(trifluoromethyl)phenyl)quinoxalin-2-yl) pentanoic acid] showed a Ki of 2.1 to 20 nM. The result for `O=C(O)CCCCc1nc2cc(C(=O)N3CC(c4cccc(Cl)c4)C3)ccc2nc1-c1ccc(Cl)cc1` [compound 425, 5-(3-(4-chlorophenyl)-7-(3-(3-chlorophenyl)azetidine-1-carbonyl)quinoxalin-2-yl)pentanoic acid] reads 0.1 to 2 nM; that for `O=C(O)CCCCc1nc2cc(C(=O)N3CC(c4ccc(Cl)cc4)C3)ccc2nc1-c1ccc(Cl)cc1` [compound 426, 5-(3-(4-chlorophenyl)-7-(3-(4-chlorophenyl)azetidine-1-carbonyl)quinoxalin-2-yl)pentanoic acid], 0.1 to 2 nM. Then `CC(CCCc1nc2cc(C(=O)N[C@H](C)c3ccc(Cl)cc3)ccc2nc1-c1ccc(F)cc1)C(=O)O` (stereo partly drawn) [compound 427, 5-(7-(((R)-1-(4-chlorophenyl)ethyl)carbamoyl)-3-(4-fluorophenyl)quinoxalin-2-yl)-2-methylpentanoic acid], with 2.1 to 20 nM; and `CC(CCCc1nc2cc(C(=O)N[C@@H](C)c3ccc(Cl)cc3)ccc2nc1-c1ccc(F)cc1)C(=O)O` (stereo partly drawn) [compound 428, 5-(7-(((S)-1-(4-chlorophenyl)ethyl)carbamoyl)-3-3-(4-fluorophenyl)quinoxalin-2-yl)-2-methylpentanoic acid], with 20.1 to 200 nM; and `CC(CCc1nc2cc(C(=O)N[C@H](C)c3ccc(F)cc3)ccc2nc1-c1ccc(Cl)cc1)CC(=O)O` (stereo partly drawn) [compound 429, 5-(3-(4-chlorophenyl)-7-(((R)-1-(4-fluorophenyl)ethyl)carbamoyl)quinoxalin-2-yl)-3-methylpentanoic acid], with 0.1 to 2 nM. The molecule `CC(CCc1nc2cc(C(=O)N[C@@H](C)c3ccc(F)cc3)ccc2nc1-c1ccc(F)cc1)CC(=O)O` (stereo partly drawn) [compound 430, 5-(3-(4-fluorophenyl)-7-(((S)-1-(4-fluorophenyl)ethyl)carbamoyl)quinoxalin-2-yl)-3-methylpentanoic acid] had a Ki of 2.1 to 20 nM.

In turn, `CC(CCc1nc2cc(C(=O)N[C@@H]3CCCc4ccccc43)ccc2nc1-c1ccc(F)cc1)CC(=O)O` (stereo partly drawn) [compound 431, 5-(3-(4-fluorophenyl)-7-(((R)-1,2,3,4-tetrahydronaphthalen-1-yl)carbamoyl)quinoxalin-2-yl)-3-methylpentanoic acid] gave a Ki of 2.1 to 20 nM. The molecule `CC(CCc1nc2cc(C(=O)N[C@H](C)c3ccc(F)cc3)ccc2nc1-c1ccc(F)cc1)CC(=O)O` (stereo partly drawn) [compound 432, 5-(3-(4-fluorophenyl)-7-(((R)-1-(4-fluorophenyl)ethyl)carbamoyl)quinoxalin-2-yl)-3-methylpentanoic acid] displayed a Ki of 0.1 to 2 nM. The result for `CC(CCc1nc2cc(C(=O)N[C@H]3CCCc4ccccc43)ccc2nc1-c1ccc(F)cc1)CC(=O)O` (stereo partly drawn) [compound 433, 5-(3-(4-fluorophenyl)-7-(((S)-1,2,3,4-tetrahydronaphthalen-1-yl)carbamoyl)quinoxalin-2-yl)-3-methylpentanoic acid] reads 2.1 to 20 nM. Then `C[C@@H](NC(=O)c1ccc2nc(-c3ccc(Cl)cc3)c(CCCCC(=O)O)nc2c1)c1ccc(F)cn1` [compound 434, (R)-5-(3-(4-chlorophenyl)-7-((1-(5-fluoropyridin-2-yl)ethyl)carbamoyl)quinoxalin-2-yl)pentanoic acid], with 0.1 to 2 nM.
